Measured values published in US8206955B2, “Production of monatin and monatin precursors” (Cargill, Incorporated, priority 2003, dated 2012).

What was measured:
[1] = system: S. meliloti; assay: plate assay using monatin as the main carbon and energy source; assay type: cell-based; conditions: M9 medium + monatin (0.1-0.2%), 26° C.
Experimental: (§1) Organisms that can synthesize monatin can be detected by screening for growth on plates in which monatin (or the monatin precursor (MP)) is the main carbon and energy source. Screening by this method requires (1) that the synthetic pathway be reversible, allowing the product, monatin, to be metabolized by this route and (2) that the organism has a transport system that is able to import monatin or MP. S. meliloti, P. straminea, and C. testosteroni were tested for their ability to grow on minimal medium plates which contained monatin as the primary carbon and energy source.
(§2) Plates containing M9 minimal medium or Rhizobium minimal medium were prepared with 0.01% casamino acids and 0.1-0.2% carbon source (glucose or purified monatin). Negative control plates contained casamino acids but no additional carbon source. S. meliloti, P. straminea, and C. testosteroni were grown in rich media to OD 2.1-2.7 and diluted 1000-fold with sterile 1× phosphate-buffered saline (PBS). A volume of 1-10 μL was used for plating. The plates were incubated at 26° C. for several days. […] The experiments were repeated and C. testosteroni was grown in both NB as well as PHB media prior to induction. Again using M9 media for plating, the S. meliloti appeared to grow better with monatin as the carbon source than the other organisms. […] In addition, at the higher dilution (10^−6), the use of PHB-grown inoculum increased the number and size of colonies obtained compared to the NB-grown inoculum.

[2] = system: C. testosteroni; assay: as above; assay type: cell-based
Experimental: as §1, §2

[3] = stability of MP; assay type: physicochemical
Excerpt: Any effect of additional tryptophan and pyruvate was not detectable, except in the case of Comamonas, where a benefit was noted. […] It is not known whether tryptophan and pyruvate are efficiently taken up in these wildtype organisms, or what changes in gene expression occur as a result of adding large concentrations of these substrates to the medium. While the parahydroxybenzoate substrate is only known to induce the aldolase in Comamonas, it appears to have improved the level of monatin produced in S. meliloti as well.

[4] = system: E. coli BL21(DE3); assay: effect of Tweens on growth of E. coli in shake flasks; conditions: for effect on growth rate: 0.2% Tween in the presence of 10 μg/mL ampicillin, followed over 48 h
Experimental: The affect of several detergent Tweens on the growth rate of E. coli BL21(DE3) was studied in shake flask experiments. Either Tween-20, -40, 60, or -80 was added at 0.2% in the presence of 10 μg/mL ampicillin and the growth was followed over 48 h.

[5] = system: C. testosteroni ProA aldolase and L-aspartate aminotransferase (AspC); assay: production of monatin utilizing alternative C3-carbon sources; assay type: biochemical
Experimental: The reaction mixture consisted of 50 mM Tris-Cl pH 8.3, 2 mM MgCl2, 200 mM C3 carbon source, 5 mM alpha-ketoglutarate, sodium salt, 0.05 mM pyridoxal phosphate, deaerated water to achieve a final volume of 0.5 mL after the addition of the enzymes, 3 mM potassium phosphate pH 7.5, 25 μg of crude recombinant C. testosteroni ProA aldolase as prepared in Example 2, 500 μg of crude L-aspartate aminotransferase (AspC) as prepared in Example 1, and solid tryptophan to afford a concentration of >60 mM (saturated; some undissolved throughout the reaction). The reaction mix was incubated at 30° C. for 30 minutes with mixing. Serine, alanine, and aspartate were supplied as 3-carbon sources. Assays were performed with and without secondary PLP enzymes (purified) capable of performing beta-elimination and beta-lyase reactions (tryptophanase (TNA), double mutant tryptophanase, β-tyrosinase (TPL)).

[6] = aldolase activity assay, indole-3-pyruvate and pyruvate to MP; assay type: biochemical
Experimental: The proteins were assayed for activity using indole-3-pyruvate and sodium pyruvate as substrates. The assay mixture contained 100 mM Tris-HCl (pH 7-pH 8.9), 0-8 mM MgCl2, 3 mM potassium phosphate (pH 8), and 6 mM of each substrate in 1 mL. The reaction was started by adding varying amounts of polypeptide (for example from 10 to 100 μg), and was incubated at 25° C.-37° C. for 30 minutes, filtered, and then frozen at −80° C.
There is no evidence that magnesium and phosphate are required for activity for this enzyme. However, the literature reports performing the assays in sodium phosphate buffer, and the enzyme reportedly is bifunctional and has activity on phosphorylated substrates such as 2-keto-3-deoxy-6-phosphogluconate (KDPG). The enzymatic assays were performed as described above, and in some instances the phosphate was omitted. […] In some cases the level of MP produced by KHG was almost identical to the amount produced by magnesium and phosphate alone. […] The Bacillus enzyme had the highest activity, approximately 20-25% higher activity than the magnesium and phosphate alone, as determined by LC/MS/MS (see Example 6). […] All three enzymes have the active site glutamate (position 43 in B. subtilis numbering system) as well as the lysine required for Shiff base formation with pyruvate (position 130); however, the B. subtilis enzyme contains a threonine in position 47, an active site residue, rather than arginine. The B. subtilis KHG is smaller and appears to be in a cluster distinct from the S. meliloti and E. coli enzymes, with other enzymes having the active site threonine. The differences in the active site may be the reason for the increased activity of the B. subtilis enzyme.

[7] = 200 mM C3 carbon source, additional PLP enzyme: None
[8] = additional PLP enzyme: 11 μg wildtype TNA (1 U)
[9] = additional PLP enzyme: 80 μg double mutant TNA

Molecule: NC(CC(O)(Cc1c[nH]c2ccccc12)C(=O)O)C(=O)O (racemic) [monatin, 2-hydroxy-2-(indol-3-ylmethyl)-4-aminoglutaric acid]
- growth with monatin as carbon source [1]: exhibited better growth than the other strains tested
- growth with monatin as carbon source ([2]; M9 media + monatin): exhibited some growth
- growth with monatin as carbon source ([2]; Rhizobium minimal medium): grew better with monatin as the carbon and energy source than it did with glucose

Molecule: O=C(O)C(=O)CC(O)(Cc1c[nH]c2ccccc12)C(=O)O (centres unmarked) [MP, 2-hydroxy 2-(indole-3-ylmethyl)-4-keto glutaric acid]
- stability ([3]; aqueous solution): unstable in an aqueous solution
- stability ([3]; fermentation broth and cell extracts): not stable in this particular matrix

Molecule: Tween-60
- effect on growth rate [4]: intermediate in affect

Molecule: C[C@H](N)C(=O)O [alanine]
- Relative Activity [5, 7]: 32%
- Relative Activity [5, 8]: 41.7%
- Relative Activity [5, 9]: 43.9%

Molecule: tryptophanase
- formation of MP from indole-3-pyruvate and pyruvate (in words) [6]: did not appear to detectably convert indole-3-pyruvate to MP

Molecule: Tween-80
- effect on growth rate [4]: intermediate in affect

Molecule: N[C@@H](CO)C(=O)O [serine]
- Relative Activity [5, 7]: 3%
- Relative Activity [5, 8]: 5.1%
- Relative Activity [5, 9]: 4.6%

Molecule: Tween 40
- inhibition to growth ([4]; 0.2% Tween): least inhibition to growth
- effect on growth rate [4]: affected the growth rate the least

Molecule: C. testosteroni aldolase: 4-hydroxy-4-methyl-2-oxoglutarate pyruvate lyase (ProA aldolase) from Comamonas testosteroni (SEQ ID NO: 66)
- amount of MP produced ([6]; standard assay using 20 μg of purified protein, based on tryptophan standards): 10-40 μg per one mL reaction

Molecule: polyoxyethylene 20-Sorbitan monolaurate [Tween 20]
- final OD600 relative to cultures grown in the presence of Tween 40 ([4]; 0.2% Tween): slightly over half
- effect on growth rate [4]: about half

Molecule: Cc1ncc(COP(=O)(O)O)c(C=O)c1O [PLP, pyridoxal 5′-phosphate, reference compound]
- formation of MP from indole-3-pyruvate and pyruvate (in words) [6]: did not appear to detectably convert indole-3-pyruvate to MP
